Assay results published in PMC6301270 (MedChemComm, 2018).
pIC50: −log10 of the molar value. Entries after “also recorded” stand apart in the source; their conditions may differ. Where two headings read alike, the source gives them in different places.

Key:
[1] = test system: T.b. brucei (strain 427) bloodstream form parasites; assay: Trypanosoma brucei assay, dose–response (this study); format: cell-based; settings: for IC50: Trypanosoma brucei; for Selectivity index: calculated as IC50(HeLa)/IC50(T.bb)
HeLa cells = assay: HeLa cell assay (cytotoxicity); format: cell-based; settings: Homo sapiens; for pIC50: Table 2, HeLa cells, 48 hours, resazurin, read-out: HeLa IC50
T.b. brucei = test system: T.b. brucei; set-up: method as in https://www.pathogenbox.org/; settings: Table 1, kinetoplastid category; ref https://www.pathogenbox.org/; read-out: T. brucei brucei IC50 (μM) Pathogen Box; cited from earlier work
T. brucei culture = test system: T. brucei culture; set-up: method as in PMID 22148754, PMID 20360736; settings: through selective inhibition of T. brucei N-myristoyl transferase; cited from earlier work
[2] = test system: T.b. brucei (strain 427) bloodstream form parasites; assay: T.b. brucei single concentration screen (10 μM); settings: Trypanosoma brucei, read-out: T.b.brucei % viability (10 µM)
HepG2 cells = test system: HepG2 cells; set-up: method as in Pathogen Box; settings: ref Pathogen Box, read-out: CC50 against HepG2 cells; cited from earlier work
mycobacterial = test system: mycobacterial; set-up: method as in PMID 23268609; settings: inhibits the ATPase domain of DNA gyrase B; cited from earlier work
plasmodial = test system: plasmodial; set-up: method as in PMID 22390538; settings: screen of the SoftFocus kinase library; cited from earlier work
Leishmaniasis donovani = test system: Leishmaniasis donovani; set-up: method as in Duffy et al.; settings: ref Duffy et al.; cited from earlier work
kinetoplastid = test system: kinetoplastid; set-up: method as in PMID 25740547; settings: screen of 1.8 million compounds; cited from earlier work
[3] = Table 2, remaining Pathogen Box, 48 hours at 37 °C, resazurin, read-out: T. brucei brucei IC50 (μM) This study
[4] = pIC50 values (M), read-out: pIC50 (T.b. brucei), this study (converted)

| Compound | IC50 ([1]; 48 h, read-out: T. brucei brucei IC50 (μM) This study) [µM] | IC50 (HeLa cells; HeLa, 48 h, read-out: HeLa IC50 (μM)) [µM] | IC50 (T.b. brucei) [µM] | Inhibition of T. brucei culture (T. brucei culture) | viability at 10 µM [2] [%] | T.b. brucei inhibition in words, this study [1] | IC50 [1, 3] [µM] | IC50 [1, 4] [µM] | Selectivity index [1] | pIC50 (HeLa cells) | CC50 (HepG2 cells) [nM] | In vitro anti-mycobacterial activity (mycobacterial) | Anti-plasmodial activity (plasmodial) | Inhibition of Leishmaniasis donovani (Leishmaniasis donovani) | Kinetoplastid inhibition (kinetoplastid) |
| --- | --- | --- | --- | --- | --- | --- | --- | --- | --- | --- | --- | --- | --- | --- | --- |
| Cc1nn(C)c(C)c1NS(=O)(=O)c1c(Cl)cc(-c2ccnc(N3CCNCC3)c2)cc1Cl [Compound 1, Cc1nn(C)c(C)c1NS(=O)(=O)c2c(Cl)cc(cc2Cl)c3ccnc(c3)N4CCNCC4] | 11 | 2.8 | < 0.13 | moderate inhibitor | 2 | – | – | – | – | – | – | – | – | – | – |
| CCc1c(C)nc(-n2nc(C)cc2NC(=O)c2ccccc2SC)[nH]c1=O [Compound 39, CCC1=C(C)N=C(NC1=O)n2nc(C)cc2NC(=O)c3ccccc3SC] | – | – | – | – | 2 | sub-micromolar inhibitors; also recorded: sub-micromolar range | 0.59 | < 1 | 4.4 | 5.59 | 1300 | – | – | – | – |
| CN1CCN(CCCOc2ncc(Nc3ncc(-c4ccc(C(F)(F)F)c(F)c4)nc3C(N)=O)cn2)CC1 [Compound 46, CN1CCN(CCCOc2ncc(Nc3ncc(nc3C(=O)N)c4ccc(c(F)c4)C(F)(F)F)cn2)CC1] | – | – | – | – | 3 | sub-micromolar inhibitors; also recorded: sub-micromolar range | 0.87 | < 1 | 5.5 | 5.32 | 3900 | potent | – | – | – |
| COc1cc(-c2cc(-c3ccc(S(C)(=O)=O)cc3)cnc2N)ccc1O [Compound 53, COc1cc(ccc1O)c2cc(cnc2N)c3ccc(cc3)S(=O)(=O)C] | – | – | – | – | 1 | sub-micromolar inhibitors; also recorded: sub-micromolar range; also recorded: activity in the nanomolar range | 0.33 | < 1 | – | < 4.60 | – | – | potent and selective | moderate inhibitor | – |
| TCMDC 142497 [Compound 70] | – | – | – | – | – | – | – | – | – | – | – | – | – | – | potent kinetoplastid inhibitor |
